This passage reports IC50 results from patent US12643881B2, “Bicyclic amine CDK12 inhibitors” (Incyte Corporation, priority 2021, dated 2026).

The structures appear in SMILES notation. Some results are limits rather than exact numbers.

The target of the experiment is T1, CDK12 complexed with Cyclin K (Homo sapiens, UniProt Q9NYV4).
T1 construct: GST (N)
T1 sequence (Q9NYV4 whole entry): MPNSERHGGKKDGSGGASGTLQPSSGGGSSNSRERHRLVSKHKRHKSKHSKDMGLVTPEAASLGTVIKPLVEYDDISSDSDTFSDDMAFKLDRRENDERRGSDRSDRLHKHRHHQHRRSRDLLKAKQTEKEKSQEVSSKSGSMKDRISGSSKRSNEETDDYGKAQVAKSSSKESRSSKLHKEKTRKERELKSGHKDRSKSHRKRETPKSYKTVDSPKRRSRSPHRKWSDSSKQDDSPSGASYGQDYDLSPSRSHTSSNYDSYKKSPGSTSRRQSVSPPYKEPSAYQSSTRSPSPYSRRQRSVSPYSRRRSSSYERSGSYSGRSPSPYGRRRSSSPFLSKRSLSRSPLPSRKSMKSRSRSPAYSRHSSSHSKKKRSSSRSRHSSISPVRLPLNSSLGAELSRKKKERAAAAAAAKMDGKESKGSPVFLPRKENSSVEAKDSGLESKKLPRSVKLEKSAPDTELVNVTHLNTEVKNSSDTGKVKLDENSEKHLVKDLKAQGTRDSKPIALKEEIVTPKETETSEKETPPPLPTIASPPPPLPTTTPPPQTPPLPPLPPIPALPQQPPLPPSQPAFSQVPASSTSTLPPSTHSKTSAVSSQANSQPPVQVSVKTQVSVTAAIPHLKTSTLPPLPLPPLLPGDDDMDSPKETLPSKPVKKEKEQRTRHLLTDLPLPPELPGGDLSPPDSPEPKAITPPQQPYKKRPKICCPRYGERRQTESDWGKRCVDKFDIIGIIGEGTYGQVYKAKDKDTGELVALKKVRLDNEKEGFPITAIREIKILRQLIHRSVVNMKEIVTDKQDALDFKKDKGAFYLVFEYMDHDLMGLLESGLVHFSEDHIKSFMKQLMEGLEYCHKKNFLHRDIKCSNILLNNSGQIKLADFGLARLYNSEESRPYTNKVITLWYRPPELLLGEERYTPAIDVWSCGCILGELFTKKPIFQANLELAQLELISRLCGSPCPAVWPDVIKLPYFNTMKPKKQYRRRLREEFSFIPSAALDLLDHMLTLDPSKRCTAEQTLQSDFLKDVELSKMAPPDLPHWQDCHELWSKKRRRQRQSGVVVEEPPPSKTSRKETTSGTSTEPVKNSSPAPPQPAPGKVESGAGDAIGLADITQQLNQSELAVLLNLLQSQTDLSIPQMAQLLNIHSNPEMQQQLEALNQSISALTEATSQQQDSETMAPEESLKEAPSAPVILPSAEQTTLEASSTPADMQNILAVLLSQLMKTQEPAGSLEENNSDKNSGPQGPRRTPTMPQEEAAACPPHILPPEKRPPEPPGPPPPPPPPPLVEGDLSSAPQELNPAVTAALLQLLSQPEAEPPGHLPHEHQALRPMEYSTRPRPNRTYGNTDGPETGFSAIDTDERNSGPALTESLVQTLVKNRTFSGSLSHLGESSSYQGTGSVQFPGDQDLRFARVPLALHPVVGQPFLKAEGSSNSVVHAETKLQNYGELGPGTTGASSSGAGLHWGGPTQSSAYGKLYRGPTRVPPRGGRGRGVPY
T1 sequence (O75909 whole entry partner): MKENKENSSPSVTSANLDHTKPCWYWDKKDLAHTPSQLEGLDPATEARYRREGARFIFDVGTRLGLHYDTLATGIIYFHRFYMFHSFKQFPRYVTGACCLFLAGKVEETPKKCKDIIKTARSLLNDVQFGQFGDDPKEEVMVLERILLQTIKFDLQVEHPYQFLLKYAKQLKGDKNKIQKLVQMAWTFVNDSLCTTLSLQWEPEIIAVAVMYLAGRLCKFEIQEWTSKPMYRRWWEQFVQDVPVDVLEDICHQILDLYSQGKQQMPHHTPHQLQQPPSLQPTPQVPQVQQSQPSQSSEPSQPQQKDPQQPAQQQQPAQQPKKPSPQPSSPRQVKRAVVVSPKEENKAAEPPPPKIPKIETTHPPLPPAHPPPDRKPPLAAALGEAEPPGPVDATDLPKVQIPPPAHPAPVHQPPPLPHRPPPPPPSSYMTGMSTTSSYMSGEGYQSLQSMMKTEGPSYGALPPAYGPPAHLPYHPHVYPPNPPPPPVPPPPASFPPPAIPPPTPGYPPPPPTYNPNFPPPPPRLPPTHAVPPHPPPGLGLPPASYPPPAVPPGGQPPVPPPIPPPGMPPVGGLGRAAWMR
As to the kind of experiment: CDK Enzymatic Assays (HTRF, LANCE Ultra kinase assay), Example A1. The class given is biochemical. The conditions noted are these: enzyme pre-incubated with compounds for 60 minutes prior to addition of ATP (1 mM final) and Ulight-peptide; reaction 60-90 minutes at room temperature. The source says: Example A1. CDK Enzymatic Assays
The following activity of the CDK enzymes in complex with their respective cyclins we assayed: CDK1 complexed with Cyclin B1; CDK2 complexed with Cyclin E1; CDK4 complexed with Cyclin D1; CDK6 complexed with Cyclin D1; CDK6 complexed with Cyclin D3; CDK9 complexed with Cyclin T1; CDK7 complexed with Cyclin H/MAT1; CDK2 complexed with Cyclin A2; CDK5 complexed with p35; CDK12 complexed with Cyclin K; CDK13 complexed with Cyclin K. These in vitro enzyme activity are assayed using homogeneous time-resolved energy transfer (HTRF), which measures phosphorylation of a peptide substrate. The LANCER Ultra kinase assay (PerkinElmer) uses a ULight™-labeled EIF4E-binding protein 1 (THR37/46) peptide (DYSTTPGGTLFSTTPGTRI (SEQ ID NO: 1)) substrate and a Europium-labeled anti-phospho-4E-BP1 antibody (CDK2, CDK1, CDK4, CDK6, CDK9, CDK12, CDK13) or ULight™-labeled Myelin Basic Protein peptide (VTPRTPPP (SEQ ID NO: 2)) substrate and a Europium-labeled anti-phospho-MBP antibody (CDK7). Each CDK enzyme activity assays utilized human CDK co-expressed as N-terminal GST-tagged protein with its full length cyclin partner using a baculovirus expression system.
Enzyme was pre-incubated with compounds for 30 minutes (CDK1,2,4,6,9) or 60 minutes (CDK7, CDK12, CDK13) prior to addition of ATP and Ulight-peptide (1 mM and 50 nM final, respectively), in assay buffer containing 50 mM HEPES pH 7.5, 1 mM EGTA, 10 mM MgCl2, 2 mM DTT, 0.05 mg/mL BSA, and 0.01% Tween 20. The reaction was then incubated for 60-90 minutes at room temperature. The reactions were stopped by the addition of EDTA and Europium labeled antibody, for a final concentration of 15 mM and 1.0-1.5 nM, respectively. HTRF signals were read after 15-120 minutes. A ratio of fluorescence transferred to the labeled substrate (665 nm) relative to fluorescence of the Europium donor (620 nm) represents the extent of phosphorylation. Ratios for treated wells were normalized to DMSO only (100% activity) and no enzyme (0% activity) controls. Normalized data was analyzed using a three or four parameter dose response curve to determine IC50 for each compound and are shown in Table A. Control reference inhibitors were included on each plate.
A general note: Time-resolved FRET reads energy transfer from a long-lived donor to a nearby acceptor.
The term IC50 denotes the point on the concentration scale where inhibition reaches its midpoint. In the case of `C=CC(=O)Nc1cccc2c(N3CCC[C@@H](Nc4ncc(C#N)c(OC)n4)C3)noc12` [Example 28, (R)—N-(3-(3-((5-Cyano-4-methoxypyrimidin-2-yl)amino)piperidin-1-yl)benzo[d]isoxazol-7-yl)acrylamide], the IC50 was less than 50 nM.
To `C=CC(=O)Nc1ccc2c(c1)C(=O)N([C@H]1CCC[C@@H](Nc3ncc(C(F)(F)F)s3)C1)C2` [Example 29, N-(3-Oxo-2-((1S,3R)-3-((5-(trifluoromethyl)thiazol-2-yl)amino)cyclohexyl)isoindolin-5-yl)acrylamide] belongs less than 50 nM.
As for `CC#CC(=O)Nc1nn(C)c2cc(N3CCC[C@@H](Nc4ncc(C#N)c(OC)n4)C3)ncc12` [Example 30, (R)—N-(6-(3-((5-Cyano-4-methoxypyrimidin-2-yl)amino)piperidin-1-yl)-1-methyl-1H-pyrazolo[4,3-c]pyridin-3-yl)but-2-ynamide], the figure is less than 50 nM; as for `CCC(Br)C(=O)Nc1nn(C)c2cc(N3CCC[C@@H](Nc4ncc(C#N)c(OC)n4)C3)ncc12` (stereo partly drawn) [Example 31, 2-Bromo-N-(6-((R)-3-((5-cyano-4-methoxypyrimidin-2-yl)amino)piperidin-1-yl)-1-methyl-1H-pyrazolo[4,3-c]pyridin-3-yl)butanamide], less than 50 nM.
As for `COc1nc(N[C@@H]2CCCN(c3cc4c(cn3)c(NC(=O)C(C)Br)nn4C)C2)ncc1C#N` (stereo partly drawn) [Example 32, 2-Bromo-N-(6-((R)-3-((5-cyano-4-methoxypyrimidin-2-yl)amino)piperidin-1-yl)-1-methyl-1H-pyrazolo[4,3-c]pyridin-3-yl)propanamide], the figure is less than 50 nM; as for `COc1nc(N[C@@H]2CCCN(c3cc4c(cn3)c(NC(=O)CCl)nn4C)C2)ncc1C#N` [Example 33, (R)-2-Chloro-N-(6-(3-((5-cyano-4-methoxypyrimidin-2-yl)amino)piperidin-1-yl)-1-methyl-1H-pyrazolo[4,3-c]pyridin-3-yl)acetamide], less than 50 nM.
On to `C=CC(=O)Nc1cnc2c(N3CCC[C@@H](Nc4ncc(C#N)c(OC)n4)C3)nccn12` [Example 34, (R)—N-(8-(3-((5-Cyano-4-methoxypyrimidin-2-yl)amino)piperidin-1-yl)imidazo[1,2-a]pyrazin-3-yl)acrylamide], for which the IC50 was less than 50 nM.
To `C=CC(=O)Nc1cccc2c(N3CCC[C@@H](Nc4ncc(C#N)c(OC)n4)C3)nn(C)c12` [Example 35, (R)—N-(3-(3-((5-Cyano-4-methoxypyrimidin-2-yl)amino)piperidin-1-yl)-1-methyl-1H-indazol-7-yl)acrylamide] belongs less than 50 nM; to `C=CC(=O)Nc1ccc2oc(N3CCC[C@@H](Nc4ncc(C#N)c(OC)n4)C3)nc2c1` [Example 36, (R)—N-(2-(3-((5-Cyano-4-methoxypyrimidin-2-yl)amino)piperidin-1-yl)benzo[d]oxazol-5-yl)acrylamide], less than 50 nM.
Consider `C=CC(=O)Nc1ccc2c(c1)nc(N1CCC[C@@H](Nc3ncc(C#N)c(OC)n3)C1)n2C` [Example 37, (R)—N-(2-(3-((5-Cyano-4-methoxypyrimidin-2-yl)amino)piperidin-1-yl)-1-methyl-1H-benzo[d]imidazol-5-yl)acrylamide], for which the IC50 was less than 50 nM.
As for `C=CC(=O)Nc1cncc2sc(N3CC[C@@H](Nc4ncc(C#N)c(OC)n4)C3)nc12` [Example 38, (R)—N-(2-(3-((5-Cyano-4-methoxypyrimidin-2-yl)amino)pyrrolidin-1-yl)thiazolo[5,4-c]pyridin-7-yl)acrylamide], the figure is less than 50 nM; as for `C=CC(=O)Nc1ccc2c(c1)cc(N1CCC[C@@H](Nc3ncc(C#N)c(OC)n3)C1)n2C` [Example 39, (R)—N-(2-(3-((5-Cyano-4-methoxypyrimidin-2-yl)amino)piperidin-1-yl)-1-methyl-1H-indol-5-yl)acrylamide], more than 500 nM; as for `C=CC(=O)Nc1ccc2sc(N3CCC[C@@H](Nc4ncc(C#N)c(OC)n4)C3)nc2c1` [Example 40, (R)—N-(2-(3-((5-Cyano-4-methoxypyrimidin-2-yl)amino)piperidin-1-yl)benzo[d]thiazol-5-yl)acrylamide], less than 50 nM.
To `C=CC(=O)Nc1ccc2sc(N3CC[C@@H](Nc4ncc(C#N)c(OC)n4)C3)nc2c1` [Example 41, (R)—N-(2-(3-((5-Cyano-4-methoxypyrimidin-2-yl)amino)pyrrolidin-1-yl)benzo[d]thiazol-5-yl)acrylamide] belongs less than 50 nM.
To `C=CC(=O)Nc1ccc2c(N3CCC[C@@H](Nc4ncc(C#N)c(OC)n4)C3)csc2c1` [Example 42, (R)—N-(3-(3-((5-Cyano-4-methoxypyrimidin-2-yl)amino)piperidin-1-yl)benzo[b]thiophen-6-yl)acrylamide] belongs 50 to 500 nM.
As for `C=CC(=O)Nc1ccc2c(N3CCC[C@@H](Nc4ncc(C#N)c(OC)n4)C3)nn(C)c2c1` [Example 43, (R)—N-(3-(3-((5-Cyano-4-methoxypyrimidin-2-yl)amino)piperidin-1-yl)-1-methyl-1H-indazol-6-yl)acrylamide], the IC50 was less than 50 nM.
As for `C=CC(=O)Nc1ccc2nc(N3CCC[C@@H](Nc4ncc(C#N)c(OC)n4)C3)nn2c1` [Example 44, (R)—N-(2-(3-((5-Cyano-4-methoxypyrimidin-2-yl)amino)piperidin-1-yl)-[1,2,4]triazolo[1,5-a]pyridin-6-yl)acrylamide], the figure is less than 50 nM.
To `C=CC(=O)Nc1ccc2nc(N3CC[C@@H](Nc4ncc(C#N)c(OC)n4)C3)nn2c1` [Example 45, (R)—N-(2-(3-((5-Cyano-4-methoxypyrimidin-2-yl)amino)pyrrolidin-1-yl)-[1,2,4]triazolo[1,5-a]pyridin-6-yl)acrylamide] belongs less than 50 nM; to `C=CC(=O)Nc1ccc2nc(N3CCC[C@@H](Nc4ncc(C#N)c(OC)n4)C3)sc2c1` [Example 46, (R)—N-(2-(3-((5-Cyano-4-methoxypyrimidin-2-yl)amino)piperidin-1-yl)benzo[d]thiazol-6-yl)acrylamide], less than 50 nM.
As for `C=CC(=O)Nc1ccc2c(c1)nc([C@H]1CCC[C@@H](Nc3ncc(C#N)c(OC)n3)C1)n2CCO` [Example 47, N-(2-((1S,3R)-3-((5-Cyano-4-methoxypyrimidin-2-yl)amino)cyclohexyl)-1-(2-hydroxyethyl)-1H-benzo[d]imidazol-5-yl)acrylamide], the figure is less than 50 nM; as for `CCOC(=O)/C=C/C(=O)Nc1ccc2c(c1)nc([C@H]1CCC[C@@H](Nc3ncc(C#N)c(OC)n3)C1)n2C` [Example 48, Ethyl (E)-4-((2-((1S,3R)-3-((5-Cyano-4-methoxypyrimidin-2-yl)amino)cyclohexyl)-1-methyl-1H-benzo[d]imidazol-5-yl)amino)-4-oxobut-2-enoate], less than 50 nM.
As for `CCC(Br)C(=O)Nc1ccc2c(c1)nc([C@H]1CCC[C@@H](Nc3ncc(C#N)c(OC)n3)C1)n2C` (stereo partly drawn) [Example 49, 2-Bromo-N-(2-((1S,3R)-3-((5-cyano-4-methoxypyrimidin-2-yl)amino)cyclohexyl)-1-methyl-1H-benzo[d]imidazol-5-yl)butanamide], the IC50 was less than 50 nM.
As for `COc1nc(N[C@@H]2CCC[C@H](c3nc4cc(NC(=O)CCl)ccc4n3C)C2)ncc1C#N` [Example 50, 2-Chloro-N-(2-((1S,3R)-3-((5-cyano-4-methoxypyrimidin-2-yl)amino)cyclohexyl)-1-methyl-1H-benzo[d]imidazol-5-yl)acetamide], the figure is less than 50 nM; as for `COc1nc(N[C@@H]2CCC[C@H](c3nc4cc(NC(=O)C5OC5C(=O)O)ccc4n3C)C2)ncc1C#N` (stereo partly drawn) [Example 51, 3-((2-((1S,3R)-3-((5-Cyano-4-methoxypyrimidin-2-yl)amino)cyclohexyl)-1-methyl-1H-benzo[d]imidazol-5-yl)carbamoyl)oxirane-2-carboxylic acid], 50 to 500 nM.
As for `COc1nc(N[C@@H]2CCC[C@H](c3nc4cc(NC(=O)C(C)Br)ccc4n3C)C2)ncc1C#N` (stereo partly drawn) [Example 52, 2-Bromo-N-(2-((1S,3R)-3-((5-cyano-4-methoxypyrimidin-2-yl)amino)cyclohexyl)-1-methyl-1H-benzo[d]imidazol-5-yl)propanamide], the figure is less than 50 nM; as for `C=C(F)C(=O)Nc1ccc2c(c1)nc([C@H]1CCC[C@@H](Nc3ncc(C#N)c(OC)n3)C1)n2C` [Example 53, N-(2-((1S,3R)-3-((5-Cyano-4-methoxypyrimidin-2-yl)amino)cyclohexyl)-1-methyl-1H-benzo[d]imidazol-5-yl)-2-fluoroacrylamide], 50 to 500 nM.
